# According to patent US10206909B2, “3-(1H-pyrrolo[2,3-B]pyridin-2-yl)-1H-pyrazolo[4,3-B]pyridines and therapeutic uses thereof” (Samumed, LLC, priority 2015, dated 2019):
# pEC50: −log10 of the molar value.
# Experiments:
# [1] = system: primary human fibroblasts derived from IPF patients (LL29 cells); test: Inhibition of the fibrotic process: αSMA staining in TGF-β1 treated fibroblasts; assay type: cell-based; conditions: Fibroblast; for pEC50: 96 h, LL29 cells, TGF-β1 20 ng/mL, 4 days, % αSMA positive cells
# Outline: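 IPF-derived LL29 fibroblasts in F12 with 1% FBS dosed with compound (11-point, 10 μM to 1.87 nM, 0.1% DMSO), then 20 ng/mL TGF-β1 after 1 h, and cultured 4 days at 37 °C. αSMA-positive cell fraction imaged after excluding SYTOX-positive cells, normalized to TGF-β1/DMSO wells; EC50 by non-linear regression, % inhibition at 10 μM if EC50 >10 μM.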
# [2] = system: primary human mesenchymal stem cells (hMSCs); test: Chondrogenesis induction in mesenchymal stem cells (nodule count); assay type: cell-based; conditions: 144 h, 6 days; for Emax: relative to TGF-β3 (10 ng/mL) positive control, read-out: Max. Activity as % TGF-β3 activity; for EC50: concentration required to induce 50% levels of chondrogenesis vs TGF-β3, read-out: Conc (nM) of 50% TGF-β3 activity
# Experimental: Representative compounds were screened using primary human mesenchymal stem cells (hMSCs) to determine their ability to induce chondrogenesis (process by which cartilage is developed).
# Human Mesenchymal Stem Cell Culture: Primary human mesenchymal stem cells (hMSCs) were purchased from Lonza (Walkersville, Md.) and expanded in Mesenchymal Stem Cell Growth Media (Lonza). Cells between passage 3 and 6 were used for the experiments.
# Compound Screening: Each compound was dissolved in DMSO as a 10 mM stock and used to prepare compound source plates. Serial dilution (1:3, 6-point dose-response curves from 2700 nM to 10 nM) and compound transfer was performed using the ECHO 550 (Labcyte, Sunnyvale, Calif.) into 96-well clear bottom assay plates (Greiner Bio-One) with appropriate DMSO backfill for a final DMSO concentration of 0.03%. hMSCs were plated at 20,000 cells/well in 250 μL/well Incomplete Chondrogenic Induction Medium (Lonza; DMEM, dexamethasone, ascorbate, insulin-transferrin-selenium [ITS supplement], gentamycin-amphotericin [GA-1000], sodium pyruvate, proline and L-glutamine). TGF-β3 (10 ng/mL) was used as a positive control for differentiation while negative control wells were treated with 75 nL DMSO for normalization and calculating EC50 values. Cells were incubated at 37° C. and 5% CO2 for 6 days. To image chondrogenic nodules, the cells were fixed using 4% formaldehyde (Electron Microscopy Sciences), and stained with 2 μg/mL Rhodamine B (Sigma-Aldrich) and 20 μM Nile Red (Sigma-Aldrich) [Johnson K., et. al, A Stem Cell-Based Approach to Cartilage Repair, Science, (2012). 336(6082), 717-721]. The nodules imaged (4 images per well at 4× magnification) by excitation at 531 nm and emission at 625 nm and quantified using the CellInsight CX5 (Thermo Scientific). Number of nodules in each well was normalized to the average of 3 DMSO treated wells on the same plate using Excel (Microsoft Inc.). The normalized averages (fold change over DMSO) of 3 replicate wells for each compound concentration were calculated. Due to solubility limitations of some of the compounds, curve fitting was incomplete leading to inaccurate EC50 determinations.
# Using TGF-β3 as a positive control, the concentration of representative compounds required to induce 50% levels of chondrogenesis is reported. In addition, the maximum activity of each compound and the respective dose that each compound reached maximum chondrogenesis activity is reported.
Compound,EC50 [2] [nM],pEC50 [1],Emax [2] [%],"inhibition at 10 µM ([1]; at 10 μM, given where EC50 >10 μM, LL29, αSMA, read-out: percent inhibition at 10 μM) [%]"
"CN1CCN(c2ccnc3[nH]c(-c4n[nH]c5ccc(-c6cncc(NC(=O)C(C)(C)C)c6)nc45)cc23)CC1 [Compound 232, N-(5-(3-(4-(4-Methylpiperazin-1-yl)-1H-pyrrolo[2,3-b]pyridin-2-yl)-1H-pyrazolo[4,3-b]pyridin-5-yl)pyridin-3-yl)pivalamide]",,6.10,24,
"CN1CCN(c2ccnc3[nH]c(-c4n[nH]c5ccc(-c6cncc(NC(=O)CC(C)(C)C)c6)nc45)cc23)CC1 [Compound 240, 3,3-Dimethyl-N-(5-(3-(4-(4-methylpiperazin-1-yl)-1H-pyrrolo[2,3-b]pyridin-2-yl)-1H-pyrazolo[4,3-b]pyridin-5-yl)pyridin-3-yl)butanamide]",,6.17,30,
"CN(C)Cc1cncc(-c2ccc3[nH]nc(-c4cc5cccnc5[nH]4)c3n2)c1 [Compound 265, 1-(5-(3-(1H-Pyrrolo[2,3-b]pyridin-2-yl)-1H-pyrazolo[4,3-b]pyridin-5-yl)pyridin-3-yl)-N,N-dimethylmethanamine]",,5.49,37,
"c1cnc2[nH]c(-c3n[nH]c4ccc(-c5cncnc5)nc34)cc2c1 [Compound 279, 5-(Pyrimidin-5-yl)-3-(1H-pyrrolo[2,3-b]pyridin-2-yl)-1H-pyrazolo[4,3-b]pyridine]",,< 5.00,43,0
"CN(C)CCNc1cc(F)cc(-c2ccnc3[nH]c(-c4n[nH]c5ccc(-c6ccncc6)nc45)cc23)c1 [Compound 466, N^1-(3-Fluoro-5-(2-(5-(pyridin-4-yl)-1H-pyrazolo[4,3-b]pyridin-3-yl)-1H-pyrrolo[2,3-b]pyridin-4-yl)phenyl)-N^2,N^2-dimethylethane-1,2-diamine]",,6.41,17,
"CN(C)CCOc1cncc(-c2ccc3[nH]nc(-c4cc5c(-c6cccnc6)ccnc5[nH]4)c3n2)c1 [Compound 563, N,N-Dimethyl-2-((5-(3-(4-(pyridin-3-yl)-1H-pyrrolo[2,3-b]pyridin-2-yl)-1H-pyrazolo[4,3-b]pyridin-5-yl)pyridin-3-yl)oxy)ethan-1-amine]",,5.52,22,
"c1cc(-c2ccnc3[nH]c(-c4n[nH]c5ccc(-c6cncc(OCCN7CCCC7)c6)nc45)cc23)ccn1 [Compound 578, 3-(4-(Pyridin-4-yl)-1H-pyrrolo[2,3-b]pyridin-2-yl)-5-(5-(2-(pyrrolidin-1-yl)ethoxy)pyridin-3-yl)-1H-pyrazolo[4,3-b]pyridine]",,5.91,40,

# Further lines, with some results ahead:
EC50 [2] [nM],Compound,pEC50 [1],Emax [2] [%],"inhibition at 10 µM ([1]; at 10 μM, given where EC50 >10 μM, LL29, αSMA, read-out: percent inhibition at 10 μM) [%]"
10,"CN1CCN(c2ccnc3[nH]c(-c4n[nH]c5ccc(-c6cncc(NC(=O)c7ccccc7)c6)nc45)cc23)CC1 [Compound 235, N-(5-(3-(4-(4-Methylpiperazin-1-yl)-1H-pyrrolo[2,3-b]pyridin-2-yl)-1H-pyrazolo[4,3-b]pyridin-5-yl)pyridin-3-yl)benzamide]",5.49,62,
10,"c1cncc(-c2ccc3[nH]nc(-c4cc5cccnc5[nH]4)c3n2)c1 [Compound 256, 5-(Pyridin-3-yl)-3-(1H-pyrrolo[2,3-b]pyridin-2-yl)-1H-pyrazolo[4,3-b]pyridine]",6.51,66,
10,"CCNCc1cncc(-c2ccc3[nH]nc(-c4cc5cccnc5[nH]4)c3n2)c1 [Compound 258, N-((5-(3-(1H-Pyrrolo[2,3-b]pyridin-2-yl)-1H-pyrazolo[4,3-b]pyridin-5-yl)pyridin-3-yl)methyl)ethanamine]",5.80,80,
100,"FC1(F)CCN(Cc2cncc(-c3ccc4[nH]nc(-c5cc6cccnc6[nH]5)c4n3)c2)C1 [Compound 278, 5-(5-((3,3-Difluoropyrrolidin-1-yl)methyl)pyridin-3-yl)-3-(1H-pyrrolo[2,3-b]pyridin-2-yl)-1H-pyrazolo[4,3-b]pyridine]",7.07,134,
900,"CN(C)CCNc1cc(F)cc(-c2ccnc3[nH]c(-c4n[nH]c5ccc(-c6cncc(CNCC7CCCC7)c6)nc45)cc23)c1 [Compound 473, N^1-(3-(2-(5-(5-(((Cyclopentylmethyl)amino)methyl)pyridin-3-yl)-1H-pyrazolo[4,3-b]pyridin-3-yl)-1H-pyrrolo[2,3-b]pyridin-4-yl)-5-fluorophenyl)-N^2,N^2-dimethylethane-1,2-diamine]",5.70,111,
300,"CN1CCN(c2ccnc3[nH]c(-c4n[nH]c5ccc(-c6cn[nH]c6)nc45)cc23)CC1 [Compound 635, 3-(4-(4-Methylpiperazin-1-yl)-1H-pyrrolo[2,3-b]pyridin-2-yl)-5-(1H-pyrazol-4-yl)-1H-pyrazolo[4,3-b]pyridine]",5.82,60,
10,"O=C(CC1CCNCC1)Nc1cncc(-c2ccc3[nH]nc(-c4cc5c(-c6ccoc6)ccnc5[nH]4)c3n2)c1 [Compound 689, N-(5-(3-(4-(Furan-3-yl)-1H-pyrrolo[2,3-b]pyridin-2-yl)-1H-pyrazolo[4,3-b]pyridin-5-yl)pyridin-3-yl)-2-(piperidin-4-yl)acetamide]",5.66,102,
300,"c1csc(-c2ccnc3[nH]c(-c4n[nH]c5ccc(-c6cncc(OC7CCNCC7)c6)nc45)cc23)c1 [Compound 704, 5-(5-(Piperidin-4-yloxy)pyridin-3-yl)-3-(4-(thiophen-2-yl)-1H-pyrrolo[2,3-b]pyridin-2-yl)-1H-pyrazolo[4,3-b]pyridine]",5.74,51,
